Test results taken from patent US11078222B2, “Hydroxybenzoic acid derivatives, methods and uses thereof” (UNiVERSIDADE DO PORTO, priority 2016, dated 2021).

Legend:
[1] = GO radical scavenging activity; type: biochemical; details: ethanol, 428 nm, 30 min
Method: The selected total antioxidant capacity (TAC) assays (DPPH, ABTS and GO) involved the spectrophotometric measurement of the radical absorbance decrease as a result of an in situ radical deactivation by an antioxidant.
The radical scavenging activity of AntiOxClNs was evaluated by means of total antioxidant capacity assays based on DPPH., ABTS.^+ and GO. radicals. All these methods involved the spectrophotometric measurement of the absorbance decrease resulting from radical (DPPH., ABTS.^+ or GO.) deactivation with an antioxidant. The results were expressed in IC50, which is defined as the minimum antioxidant concentration necessary to reduce the amount of radical by 50%. Antioxidant assays were performed in a multiplate reader (Powerwave XS Microplate Reader) from Bio Tech instruments.
In an embodiment, the GO. scavenging activity was evaluated as follows: solutions of test compounds with concentrations from 10 μM to 100 μM were prepared in ethanol. An ethanolic solution of 5 mM GO. was prepared and diluted to reach the absorbance of 1.00±0.02 at 428 nm. The addition (20 μL) in triplicate of compound solution to GO. solution (180 μL) was followed by absorbance measurement at 428 nm over 30 minutes, in the dark, at room temperature. […] Dose-response curves were established for the determination of IC50 values.

[2] = system: rat liver mitochondria (RLM); experiment: Mitochondrial transmembrane electric potential (safranine fluorescence); type: biochemical
Method: In an embodiment, and as an example, the toxicity effects of some AntiOxBENs and MitoQ on the mitochondrial bioenergetics, namely on RLM Δψ and respiration parameters, were measured. The Δψ represents the main component of the electrochemical gradient generated by mitochondrial respiration and accounts for more than 90% of the total available energy. For mitochondrial respiration assays, glutamate/malate (for complex I) and succinate (for complex II) were used as substrates. In addition, the mitochondrial oxidative phosphorylation coupling index, known as respiratory control ratio (RCR, state 3/state 4 respiration) and ADP/O index (the coupling between ATP synthesis and oxygen consumption) were also calculated. AntiOxBENs and MitoQ were tested at antioxidant-relevant concentrations, with 10 μM being the highest concentration.
In an embodiment, the evaluation of AntiOxBENs effect on mitochondrial transmembrane electric potential (Δψ) was performed as follows: the mitochondrial transmembrane electric potential (Δψ) was estimated through the evaluation of fluorescence changes of safranine (5 μM) and was recorded on a spectrofluorometer operating at excitation and emission wavelengths of 495 and 586 nm, with a slit width of 5 nm. Increasing concentrations of AntiOxBENs (2.5-10 μM) were added to the reaction medium (200 mM sucrose, 1 mM KH2PO^4, 10 mM Tris (pH 7.4) and 10 μM EGTA) containing respiratory substrates glutamate/malate (5 mM and 2.5 mM respectively) or succinate (5 mM) and RLM (0.5 mg in 2 mL final volume) and allowed to incubate for a 5 min period prior to initiate the assay, at 25° C. In this assay, safranine (5 μM) and ADP (25 nmol) were used to initiate the assay and to induce depolarization, respectively. Then, 1 μM FCCP was added at the end of all experiments to depolarize mitochondria. Δψ was calculated using a calibration curve obtained when RLM were incubated in a K^+-free reaction medium containing 200 mM sucrose, 1 mM NaH2PO4, 10 mM Tris (pH 7.4) and 10 μM EGTA, supplemented with 0.4 μg valinomicin. […] “Repolarization” corresponded to the recovery of membrane potential after the complete phosphorylation of ADP added. Lag phase reflected the time required to phosphorylate the added ADP. Isolated RLM developed a Δψ≈226 mV and Δψ≈202 mV (negative inside) when glutamate/malate or succinate were used, respectively. Data are means±SEM of five independent experiments.

[3] = system: human hepatocellular carcinoma cells (HepG2); experiment: Cytotoxicity, SRB method; type: cell-based
Method: In an embodiment, and as an example, the cytotoxicity of AntiOxBENs was assessed using monolayer cultures of human hepatocytes from hepatocellular carcinoma (HepG2) and SRB method (FIG. 8).
In an embodiment, the cytotoxicity profile of AntiOxBENs was evaluated in human hepatocellular carcinoma HepG2 cells. Human hepatocellular carcinoma HepG2 cells were cultured in high-glucose medium composed by Dulbecco's modified Eagle's medium (DMEM; D5648) supplemented with sodium pyruvate (0.11 g/L), sodium bicarbonate (1.8 g/L) and 10% fetal bovine serum (FBS) and 1% of antibiotic penicillin-streptomycin 100× solution. Cells were maintained at 37° C. in a humidified incubator with 5% CO2. HepG2 cells were seeded at density of 4×10^4 cells/mL and grown for 24 hours before treatment.
In an embodiment the cytotoxicity screening was performed as follows: cells were placed on 48-well plate (2×10^4 cells/500 μL) and then were incubated during 48 hour with AntiOxBENs concentrations ranging 25 μM to 500 μM. After incubation, sulforhodamine B (SRB) assay was used for cell density determination based on the measurement of cellular protein content. Briefly, after incubation, the medium was removed and wells rinsed with PBS […]. Cells were fixed by adding 1% acetic acid in 100% methanol for at least 2 hours at −20° C. Later, the fixation solution was discarded and the plates were dried in an oven at 37° C. Two hundred and fifty microliters of 0.5% SRB in 1% acetic acid solution was added and incubated at 37° C. for 1 h. The wells were then washed with 1% acetic acid in water and dried. Then, 500 μl of Tris (pH 10) was added and the plates were stirred for 15 min. Finally, 200 μl of each supernatant was transferred in 96-well plates and optical density was measured at 540 nm. Data are means±SEM of four independent experiments and the results are expressed as percentage of control (control=100%), which represents the cell density without any treatment in the respective time point.

| Structure (SMILES) | IC50 [1] [µM] | ADP-induced depolarization (ΔΨ in - mV) ([2]; Glutamate/Malate, 2.5 μM) | Lag Phase ([2]; Glutamate/Malate, 2.5 μM) [s] | Maximum potential (ΔΨ in - mV) ([2]; Glutamate/Malate, 2.5 μM) | Repolarization Potential (ΔΨ in - mV) ([2]; Glutamate/Malate, 2.5 μM) | ADP-induced depolarization (ΔΨ in - mV) ([2]; Glutamate/Malate, 5 μM) | Lag Phase ([2]; Glutamate/Malate, 5 μM) [s] | Maximum potential (ΔΨ in - mV) ([2]; Glutamate/Malate, 5 μM) | Repolarization Potential (ΔΨ in - mV) ([2]; Glutamate/Malate, 5 μM) | ADP-induced depolarization (ΔΨ in - mV) ([2]; Glutamate/Malate, 10 μM) | Lag Phase ([2]; Glutamate/Malate, 10 μM) [s] | Maximum potential (ΔΨ in - mV) ([2]; Glutamate/Malate, 10 μM) | Repolarization Potential (ΔΨ in - mV) ([2]; Glutamate/Malate, 10 μM) | ADP-induced depolarization (ΔΨ in - mV) ([2]; Succinate, 2.5 μM) | Lag Phase ([2]; Succinate, 2.5 μM) [s] | Maximum potential (ΔΨ in - mV) ([2]; Succinate, 2.5 μM) | Repolarization Potential (ΔΨ in - mV) ([2]; Succinate, 2.5 μM) | ADP-induced depolarization (ΔΨ in - mV) ([2]; Succinate, 5 μM) | Lag Phase ([2]; Succinate, 5 μM) [s] | Maximum potential (ΔΨ in - mV) ([2]; Succinate, 5 μM) | also measured |
| --- | --- | --- | --- | --- | --- | --- | --- | --- | --- | --- | --- | --- | --- | --- | --- | --- | --- | --- | --- | --- | --- |
| O=C(NCCCCCC[P+](c1ccccc1)(c1ccccc1)c1ccccc1)c1ccc(O)c(O)c1.[Br-] [AntiOxBEN1, 6-(3,4-dihydroxybenzamido)hexyltriphenylphosphonium bromide] | 4.3 | 199.5 ± 16.6 - mV | 131.8 ± 18.9 | 216.8 ± 18.9 - mV | 212.3 ± 18.2 - mV | 209.4 ± 20.3 - mV | 137.8 ± 22.5 | 224.8 ± 24.7 - mV | 219.0 ± 22.9 - mV | 192.6 ± 15.0 - mV | 148.7 ± 48.4 | 200.4 ± 16.0 - mV | 199.4 ± 17.1 - mV | 180.3 ± 17.1 - mV | 120.0 ± 32.1 | 191.4 ± 18.2 - mV | 190.3 ± 17.4 - mV | 175.4 ± 12.9 - mV | 93.6 ± 29.2 | 184.9 ± 13.1 - mV | Repolarization Potential (ΔΨ in - mV) ([2]; Succinate, 5 μM): 181.0 ± 13.5 - mV; ADP-induced depolarization (ΔΨ in - mV) ([2]; Succinate, 10 μM): 182.4 ± 14.4 - mV; Lag Phase ([2]; Succinate, 10 μM): 105.0 ± 28.1 s; Maximum potential (ΔΨ in - mV) ([2]; Succinate, 10 μM): 188.9 ± 14.8 - mV; Repolarization Potential (ΔΨ in - mV) ([2]; Succinate, 10 μM): 188.8 ± 15.8 - mV; toxicity / effect on HepG2 cell proliferation ([3]; HepG2, 48 hour, 25 μM to 500 μM, SRB): small inhibition of cell proliferation for lower concentrations; concentrations at which cell proliferation was stimulated ([3]; HepG2, 48 hour, SRB): higher than 100 μM |
| O=C(NCCCCCC[P+](c1ccccc1)(c1ccccc1)c1ccccc1)c1cc(O)c(O)c(O)c1.[Br-] [AntiOxBEN2, 6-(3,4,5-trihydroxybenzamido)hexyltriphenylphosphonium bromide] | 3 | 200.5 ± 17.5 - mV | 124.7 ± 19.2 | 217.8 ± 18.8 - mV | 216.8 ± 17.9 - mV | 194.9 ± 15.6 - mV | 147.5 ± 31.2 | 212.2 ± 19.8 - mV | 209.0 ± 17.8 - mV | 200.1 ± 18.2 - mV | 146.2 ± 30.9 | 209.5 ± 19.1 - mV | 208.4 ± 18.6 - mV | 184.5 ± 19.2 - mV | 115.4 ± 21.0 | 197.6 ± 18.2 - mV | 193.6 ± 17.8 - mV | 191.2 ± 17.8 - mV | 118.0 ± 26.4 | 204.6 ± 18.1 - mV | Repolarization Potential (ΔΨ in - mV) ([2]; Succinate, 5 μM): 200.4 ± 17.0 - mV; ADP-induced depolarization (ΔΨ in - mV) ([2]; Succinate, 10 μM): 190.9 ± 16.8 - mV; Lag Phase ([2]; Succinate, 10 μM): 124.8 ± 37.2 s; Maximum potential (ΔΨ in - mV) ([2]; Succinate, 10 μM): 199.8 ± 16.0 - mV; Repolarization Potential (ΔΨ in - mV) ([2]; Succinate, 10 μM): 198.6 ± 17.2 - mV; concentrations at which cell proliferation was stimulated ([3]; HepG2, 48 hour, SRB): lower than 250 μM |
| O=C(CCCCC[P+](c1ccccc1)(c1ccccc1)c1ccccc1)NCCCCCCNC(=O)c1cc(O)c(O)c(O)c1.[Br-] [AntiOxBEN3, [5-(6-(3,4,5-trihydroxybenzamido)hexylamino)carbonylpentyl]triphenylphosphonium bromide] | 3.4 | 202.9 ± 18.7 - mV | 137.5 ± 20.3 | 221.1 ± 20.2 - mV | 217.0 ± 17.7 - mV | 204.5 ± 21.6 - mV | 154.5 ± 21.5 | 221.4 ± 22.6 - mV | 216.4 ± 21.3 - mV | 216.4 ± 25.3 - mV | 143.0 ± 21.7 | 227.5 ± 26.3 - mV | 222.9 ± 25.4 - mV | 188.0 ± 19.7 - mV | 132.6 ± 22.7 | 203.6 ± 16.6 - mV | 198.4 ± 18.4 - mV | 191.1 ± 20.0 - mV | 119.8 ± 32.2 | 205.3 ± 19.4 - mV | Repolarization Potential (ΔΨ in - mV) ([2]; Succinate, 5 μM): 199.1 ± 19.2 - mV; ADP-induced depolarization (ΔΨ in - mV) ([2]; Succinate, 10 μM): 198.2 ± 19.3 - mV; Lag Phase ([2]; Succinate, 10 μM): 114.4 ± 24.3 s; Maximum potential (ΔΨ in - mV) ([2]; Succinate, 10 μM): 207.9 ± 19.3 - mV; Repolarization Potential (ΔΨ in - mV) ([2]; Succinate, 10 μM): 207.5 ± 19.4 - mV; concentrations at which cell proliferation was significantly inhibited ([3]; human, 48 h): higher than 250 μM |
